Data set [1] can be described thus: Brain/cerebrospinal fluid migration test. It is filed as in vivo, SD male rats. The following applies: rat; for concentration at 2 h / concentration at 30 min: male, SD. The method, then: A test compound was orally or intravenously administered to SD male rats (7 to 10 week-age, 200 to 400 g). While they were anesthetized with ether for a predetermined period of time, the whole blood was collected from them via their abdominal aorta, using a heparin-processed syringe. Then, their occipital skin was cut open, and a dental 30 G needle was stuck into the cervical vertebrae and further into the subarachnoid cavity. Via the tube connected to the dental 30 G needle, from 50 to 100 μL of the cerebrospinal fluid was collected in a 1 mL-syringe, and then the brain was taken out. The blood sample was centrifuged (4° C., 6000 rpm, 10 min), and the resulting plasma was stirred with ethanol of three times (including an internal standard substance) added thereto. The brain sample was homogenized with 2 mL of water added thereto, and a part of it was taken out and stirred with ethanol of three times (including an internal standard substance) added thereto. The cerebrospinal fluid was homogenized with 3 times its volume of ethanol (including an internal standard substance) added thereto. The above samples were left at −20° C. for 20 minutes, then centrifuged (4° C., 12,000 g, 10 min), and the supernatant was analyzed through LC/MS/MS. According to a relative calibration curve method, the concentration of the test compound in the plasma, in the brain and in the cerebrospinal fluid was determined.

Data set [2] concerns the target T1, human histamine-3 receptor (Homo sapiens, UniProt Q9Y5N1).
T1 construct: expressed in transfected cells; host or cells: HEK293 and CHO-K1 (American Type Culture Collection)
As to the kind of experiment: Histamine analogue-binding inhibition test ([3H]N-α-methylhistamine, membrane specimen). The following applies: result in words.
Method: A membrane specimen prepared from the cells having expressed a histamine-3 receptor was incubated in an assay buffer (50 mM Tris buffer, pH 7.4) along with a test compound and 20,000 cpm [^3H]N-α-methylhistamine (by NEN) therein, at 25° C. for 2 hours, and then filtered through a glass filter GF/C. After washed with 50 mM Tris buffer (pH 7.4), the radioactivity on the glass filter was determined. The non-specific binding was determined in the presence of 10 μM thioperamide (by Sigma), and the 50% inhibitory concentration (IC50) of the test compound to the specific N-α-methylhistamine binding was calculated [see Molecular Pharmacology, Vol. 55, p.

Read-outs that look alike come from different tables or passages of the source.

T1 sequence (Q9Y5N1 whole entry): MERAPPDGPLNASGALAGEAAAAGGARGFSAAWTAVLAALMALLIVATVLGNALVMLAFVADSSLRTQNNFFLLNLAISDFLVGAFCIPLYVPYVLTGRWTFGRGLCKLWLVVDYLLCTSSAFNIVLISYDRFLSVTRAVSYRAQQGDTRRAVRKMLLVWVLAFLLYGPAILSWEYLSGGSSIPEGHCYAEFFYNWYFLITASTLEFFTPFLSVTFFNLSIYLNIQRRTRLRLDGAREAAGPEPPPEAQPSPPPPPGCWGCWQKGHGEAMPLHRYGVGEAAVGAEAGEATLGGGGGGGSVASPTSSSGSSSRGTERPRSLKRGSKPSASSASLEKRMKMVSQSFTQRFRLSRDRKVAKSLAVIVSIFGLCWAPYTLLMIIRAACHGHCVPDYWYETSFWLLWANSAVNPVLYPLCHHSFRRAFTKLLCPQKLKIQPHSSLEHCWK

Broadly, the melting point is the temperature of the solid-liquid transition. In turn, `COc1ccnc2c(=O)n(C)c(-c3ccc(OC4CCN(C5CCC5)CC4)cc3)nc12` [Example 59, 2-{4-[(1-cyclobutylpiperidin-4-yl)oxy]phenyl}-8-methoxy-3-methylpyrido[3,2-d]pyrimidin-4(3H)-one] had a melting point of 182.2 to 205.2 °C.
On to `Cn1c(-c2ccc(OC3CCN(C4CC4)CC3)cc2)nc2ccccc2c1=O` [Example 89, 3-Methyl-2-[4-(1-cyclopropyl-4-piperidinyloxy)-phenyl]-4(3H)-quinazolinone], for which the concentration at 2 h is 27 nM in data set [1] (cerebrospinal fluid, oral administration 10 mg/kg, in 2 hours, read-out: concentration in the cerebrospinal fluid) and 700 nM in data set [1] (plasma, oral administration 10 mg/kg, in 2 hours, read-out: concentration in the plasma). Further, the “concentration in the brain” value in data set [1] (oral administration 10 mg/kg, in 2 hours) was 1.45 nmol/g.
In the case of `Cn1c(-c2ccc(OCCCN3CCCC3)cc2)nc2ccccc2c1=O` [Example 16, 3-Methyl-2-[4-(3-pyrrolidin-1-ylpropoxy)phenyl]-4(3H)-quinazoline], in data set [2], the “inhibition of the binding of N-alpha-methylhistamine (histamine analogue) to histamine-H3 receptor” value is reported as “strongly inhibited”. In addition, the concentration at 30 min in data set [1] (cerebrospinal fluid, intravenous administration 3 mg/kg, in 30 minutes, read-out: concentration in the cerebrospinal fluid) worked out at 134 nM; in data set [1] (plasma, intravenous administration 3 mg/kg, in 30 minutes, read-out: concentration in the plasma) it was 1360 nM. For the same molecule, the “concentration in the brain” value in data set [1] (intravenous administration 3 mg/kg, in 30 minutes) turned out to be 2.22 nmol/g.

Values taken from US7960394B2, “Quinazoline derivative” (Banyu Pharmaceutical Co., Ltd., priority 2004, dated 2011).
